Results reported in ChEMBL document CHEMBL4316654, “Prenylated Acylphloroglucinols from Hypericum faberi” (J Nat Prod, 2019).
pIC50: −log10 of the molar value.

Legend:
Assay type in all cases: functional, cell-based
[1] = test system: PANC-1; assay: Cytotoxicity against human PANC1 cells incubated for 48 hrs by MTT assay; conditions: PANC-1, 48 h
[2] = test system: ECa-109 cell line; assay: Cytotoxicity against human ECA109 cells incubated for 48 hrs by MTT assay; conditions: ECa-109, 48 h
[3] = Cytotoxicity against human BIU87 cells incubated for 48 hrs by MTT assay; conditions: BIU87, 48 h

SMILES | pIC50 [1] | pIC50 [2] | pIC50 [3]
CCC(C)C(=O)c1c(O)c(C/C=C(\C)CCC=C(C)C)c(O)c2cc(-c3ccccc3)oc12 (stereo not given) | 5.21 | – | –
CC(C)=CCC/C(C)=C/Cc1c(O)c(C(=O)C(C)C)c2oc(-c3ccc(O)cc3)cc2c1O | 5.05 | – | –
CC(=O)O[C@H]1C(=O)[C@@]2(C)[C@H]([C@H](OC(=O)c3ccccc3)[C@]3(O)C[C@H](OC(=O)[C@H](O)[C@@H](NC(=O)c4ccccc4)c4ccccc4)C(C)=C1C3(C)C)[C@]1(OC(C)=O)CO[C@@H]1C[C@@H]2O [PACLITAXEL] | 5.46 | 5.92 | 5.68
